Active and inactive are the calls of the source. No rule for the calls is given here.
System: GENE-TOX genotoxicity assays, various organisms and cells
Assay: GENE-TOX mutagenicity studies
Conditions: for call: Assay Type: In vivo carcinogenicity studies
[1] = Species/Cell Type: Drosophila melanogaster, Assay Type: Sex-linked recessive lethal gene mutation, Assay Code: SRL+, Evaluation Type: Evaluation A (Pre-1980)
[2] = Species/Cell Type: Salmonella typhimurium (one or more of the five standard strains: TA98, TA100, TA1535, TA1537, and TA1538), Assay Type: Histidine reverse gene mutation, Ames assay, Assay Code: SAL+*, Activation: With metabolic activation, Evaluation Type: Evaluation A (Pre-1980)
[3] = Species/Cell Type: Saccharomyces cerevisiae, Assay Type: Mitotic recombination or gene conversion, Assay Code: YEH+, Evaluation Type: Evaluation A (Pre-1980)
[4] = Species/Cell Type: Salmonella typhimurium (one or more of the five standard strains: TA98, TA100, TA1535, TA1537, and TA1538), Assay Type: Histidine reverse gene mutation, Ames assay, Assay Code: SAL+, Evaluation Type: Evaluation A (Pre-1980)

Compound: CC(=O)Nc1ccc(C(O)C(O)c2ccccc2)cc1 (stereo not given)
- mutagenic call (Species/Cell Type: Salmonella typhimurium (one or more of the five standard strains: TA98, TA100, TA1535, TA1537, and TA1538), Assay Type: Histidine reverse gene mutation, Ames assay, Assay Code: SALT, Evaluation Type: Evaluation A (Pre-1980)): no conclusion

Compound: CC(C)CN(N=O)C(N)=O
- mutagenic call (Species/Cell Type: Arabidopsis species, Assay Type: Gene mutation, Assay Code: ARM+D, Dose Response: With dose response, Evaluation Type: Evaluation A (Pre-1980)): active; positive

Compound: O=C1C(N2CC2)=C(N2CC2)C(=O)C(N2CC2)=C1N1CC1
- mutagenic call (Species/Cell Type: Drosophila melanogaster, Assay Type: Aneuploidy, partial sex chromosome loss, chromosome aberrations, Assay Code: DAPT, Evaluation Type: Evaluation A (Pre-1980)): no conclusion
- mutagenic call (Species/Cell Type: Drosophila melanogaster, Assay Type: Aneuploidy, whole sex chromosome loss, chromosome aberrations, Assay Code: DAC+M, Evaluation Type: Evaluation A (Pre-1980)): active; positive
- mutagenic call [1]: active; positive
- mutagenic call (Species/Cell Type: Neurospora crassa, Assay Type: Forward gene mutation, Assay Code: NEF+, Evaluation Type: Evaluation A (Pre-1980)): active; positive
- mutagenic call (Species/Cell Type: Neurospora crassa, Assay Type: Reverse gene mutation, Assay Code: NER+, Evaluation Type: Evaluation A (Pre-1980)): active; positive

Compound: Nc1ncnc2c1ncn2[C@@H]1O[C@H](CO)C[C@H]1O
- mutagenic call (Species/Cell Type: Fischer rat embryo (RLV/1706) cells, Assay Type: Cell transformation, viral enhanced, Assay Code: CTR-, Evaluation Type: Evaluation A (Pre-1980)): inactive; negative
- mutagenic call (Species/Cell Type: Nonhuman, Assay Type: Sister-chromatid exchange (SCE) in vitro, Assay Code: SC2T, Evaluation Type: Evaluation B (Post-1980)): no conclusion

Compound: CCN(CC)C(=S)SSC(=S)N(CC)CC
- mutagenic call (Species/Cell Type: Mammalian polychromatic erythrocytes, Assay Type: Micronucleus test, chromosome aberrations, Assay Code: MNTT, Evaluation Type: Evaluation B (Post-1980)): no conclusion
- call (Species/Cell Type: Nonhuman, Assay Code: CCG-, Evaluation Type: Evaluation A (Pre-1980)): inactive; negative

Compound: O[C@@H]1c2ccccc2-c2cc3ccc4ccccc4c3cc2[C@H]1O
- mutagenic call (Species/Cell Type: Chinese hamster lung (V79) cells, Assay Type: Forward gene mutation at the HPRT or ouabain locus, Assay Code: V79-, Evaluation Type: Evaluation A (Pre-1980)): inactive; negative
- mutagenic call (Species/Cell Type: Mouse prostate cells, Assay Type: Cell transformation, Assay Code: CTM-, Evaluation Type: Evaluation A (Pre-1980)): inactive; negative
- call (Species/Cell Type: Nonhuman, Assay Code: CCGT, Evaluation Type: Evaluation A (Pre-1980)): no conclusion
- mutagenic call [2]: active; positive
- mutagenic call (Species/Cell Type: Syrian hamster embryo (SHE) cells, Assay Type: Cell transformation, clonal assay, Assay Code: CTCT, Evaluation Type: Evaluation A (Pre-1980)): no conclusion

Compound: OC(CCl)CCl
- mutagenic call [2]: active; positive

Compound: Nc1nc(N)c2nc(CNc3ccc(C(=O)N[C@@H](CCC(=O)O)C(=O)O)cc3)cnc2n1
- mutagenic call (Species/Cell Type: Mammalian polychromatic erythrocytes, Assay Type: Micronucleus test, chromosome aberrations, Assay Code: MNT+, Evaluation Type: Evaluation A (Pre-1980)): active; positive
- mutagenic call (Species/Cell Type: Mouse, Sex: Male, Assay Type: Sperm morphology, Assay Code: SPI+, Evaluation Type: Evaluation A (Pre-1980)): active; positive
- mutagenic call (Species/Cell Type: Neurospora crassa, Assay Type: Aneuploidy, chromosome aberrations, Assay Code: NEN-, Evaluation Type: Evaluation A (Pre-1980)): inactive; negative
- mutagenic call [3]: active; positive

Compound: Cc1cc2c(c3ccc4ccccc4c13)C(=O)CC2
- mutagenic call [2]: active; positive

Compound: O=C1c2ccccc2C(=O)N1SC(Cl)(Cl)Cl
- mutagenic call (Species/Cell Type: Bacillus subtilis (H17 vs M45), Assay Type: Rec-assay, spot test, DNA effects (bacterial DNA repair), Assay Code: REWT, Evaluation Type: Evaluation A (Pre-1980)): no conclusion
- mutagenic call (Species/Cell Type: Chinese hamster ovary (CHO) cells, Assay Type: Forward gene mutation at the HPRT locus, Assay Code: CHO+, Evaluation Type: Evaluation B (Post-1980)): active; positive
- mutagenic call [1]: active; positive
- mutagenic call (Species/Cell Type: Escherichia coli WP2, Assay Type: Tryptophan reverse gene mutation, Assay Code: WP2+, Evaluation Type: Evaluation A (Pre-1980)): active; positive
- mutagenic call (Species/Cell Type: Escherichia coli WP2 UVRA, Assay Type: Tryptophan reverse gene mutation, Assay Code: WPU+/-*, Activation: With metabolic activation, Evaluation Type: Evaluation A (Pre-1980)): inactive; positive without activation, negative with activation
- mutagenic call (Species/Cell Type: Escherichia coli polA (W3119 vs P3478), Assay Type: Rec-assay, DNA effects (bacterial DNA repair), Assay Code: RE1+, Evaluation Type: Evaluation A (Pre-1980)): active; positive
- mutagenic call (Species/Cell Type: Human diploid fibroblasts, Assay Type: Unscheduled DNA synthesis (UDS) in vitro, DNA effects, Assay Code: UDH-, Evaluation Type: Evaluation A (Pre-1980)): inactive; negative
- mutagenic call (Species/Cell Type: Rodents, Sex: Male, Assay Type: Dominant lethal test, Assay Code: DLTT, Evaluation Type: Evaluation A (Pre-1980)): no conclusion
- mutagenic call (Species/Cell Type: Saccharomyces cerevisiae, Assay Type: Mitotic recombination or gene conversion, Assay Code: YEC+, Evaluation Type: Evaluation A (Pre-1980)): active; positive
- mutagenic call [3]: active; positive
- mutagenic call [4]: active; positive
- mutagenic call (Species/Cell Type: Salmonella typhimurium, Assay Type: Forward and reverse gene mutation, host-mediated assay, Assay Code: HMA-, Evaluation Type: Evaluation A (Pre-1980)): inactive; negative

Compound: O=[N+]([O-])c1c(O)ccc2ccccc12
- mutagenic call [4]: active; positive

— PubChem BioAssay AID1259408 (Genetic Toxicology Data Bank (GENE-TOX), 2018)
